What was measured:
human 5HT1A receptor = target: T1, human 5HT1A receptor (Homo sapiens, UniProt P08908); assay: Binding to 5HT1A: displacement of 3H-8-OH-DPAT in CHO cells overexpressing human 5HT1A receptor
T1 construct: expressed in transfected cells; host or cells: CHO
T1 sequence (P08908 1-422): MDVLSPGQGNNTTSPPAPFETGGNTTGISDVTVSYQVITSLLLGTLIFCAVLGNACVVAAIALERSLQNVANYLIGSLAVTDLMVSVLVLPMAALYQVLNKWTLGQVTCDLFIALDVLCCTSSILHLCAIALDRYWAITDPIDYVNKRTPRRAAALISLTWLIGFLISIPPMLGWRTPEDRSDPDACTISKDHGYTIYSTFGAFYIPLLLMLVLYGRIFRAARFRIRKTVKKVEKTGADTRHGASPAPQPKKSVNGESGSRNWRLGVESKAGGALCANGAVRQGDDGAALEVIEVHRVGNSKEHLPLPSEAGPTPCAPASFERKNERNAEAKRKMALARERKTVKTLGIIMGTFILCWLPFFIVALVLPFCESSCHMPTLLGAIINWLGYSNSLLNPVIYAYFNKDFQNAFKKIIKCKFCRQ
Method: 10 ug of protein per well preincubated 15 min and incubated 60 min RT.

5HT3 = target: T2, 5HT3 (Homo sapiens, UniProt P46098); assay: Binding to 5HT3: displacement of 3H-GR65630 in HEK-5HT3; conditions: displacement of 3H-GR65630 (0.5 nM), HEK-5HT3, 3 ug of protein per well
T2 construct: expressed in transfected cells; host or cells: HEK (HEK-5HT3)
T2 sequence (P46098 24-478): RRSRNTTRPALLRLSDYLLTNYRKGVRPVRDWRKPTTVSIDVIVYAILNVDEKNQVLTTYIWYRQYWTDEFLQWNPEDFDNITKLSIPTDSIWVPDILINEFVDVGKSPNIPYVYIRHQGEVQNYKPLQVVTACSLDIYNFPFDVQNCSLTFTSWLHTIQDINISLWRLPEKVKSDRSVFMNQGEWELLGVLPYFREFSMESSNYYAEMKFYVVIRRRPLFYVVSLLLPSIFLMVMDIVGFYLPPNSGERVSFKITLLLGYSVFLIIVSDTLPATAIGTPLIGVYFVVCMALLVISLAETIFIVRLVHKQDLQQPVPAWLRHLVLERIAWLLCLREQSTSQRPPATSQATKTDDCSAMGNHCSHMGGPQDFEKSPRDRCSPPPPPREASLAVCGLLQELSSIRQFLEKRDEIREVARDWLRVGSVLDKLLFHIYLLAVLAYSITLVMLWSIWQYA
Method: FIG. 6. Binding of 1319 to 5HT3. Displacement of 3H-GR65630 (0.5 nM). Data are presented as mean±SD, n=4 from one experiment. Kd of GR65630 was determined from a saturation assay.
Displacement of 3H-GR65630 (0.5 nM) with increasing concentrations of 1319 (from 0.1 nM to 10 uM), Lerisetron-C6-acyl and not derivatized Lerisetron (from 0.1 nM to 30 uM), in HEK-5HT3: 3 ug of protein per well is shown in Table 11.

Ataxin-I mRNA = assay: Knockdown of Ataxin I in Purkinje cells of the cerebellum (in situ hybridization, optical density); assay type: in vivo, mouse; conditions: C57/B16 mice, intranasal 4 mg/kg/day for four consecutive days, 24 hours after last administration; ± s.e.m.
From the text: FIG. 5. Microphotographs of sagittal cerebellum sections labeled with a probe for Ataxin-1. A) and B) Arrows indicate the Purkinje cells layer, ML: molecular layer, GL: granular layer. A: example of animal treated with PBS, B: example of animal treated with 5-nonyloxytryptamine oxalate conjugated to a siRNA against mRNA for Ataxin-I (NP-1297). C: Quantification of optical density (ImageJ) in the Purkinje cells layer in arbitrary units (O.D. (a.u.)) normalized against PBS showing a significant decrease (48%±5 s.e.m.) in animals treated with NP-1297 (t test, *p<0.02).
5-HT1B receptors are expressed in the Purkinje cells of the cerebellum and using the agonist 5-nonyloxytryptamine oxalate for these receptors, conjugated to a siRNA against mRNA for Ataxin-I, we knockdown this protein only in Purkinje cells. Ataxin-1-siRNA sequence (Lee et al., Nat Neurosci 11, 1137-1139 (2008))
For this, five C57/B16 wild type mice were intranasally administered with the conjugated molecule at a concentration of 4 mg/kg/day for four consecutive days and five animals of the same strain were treated with PBS as a control; 24 hours after last administration animals were sacrificed and the brain was processed for in situ hybridization with colorimetric detection. A probe 45 nucleotides long complementary to mouse Ataxin-I mRNA and labeled with digoxigenin at both ends (5′ and 3′) was used. […]

## Nc1ccc(CCN2CCN(c3cccc(C(F)(F)F)c3)CC2)cc1 [LY-165,163, 1-[2-(4-aminophenyl)ethyl]-4-(3-trifluoromethylphenyl)-piperazine]
Human 5HT1A receptor
  IC50: 1.1 nM

## c1ccc(Cn2c(N3CCNCC3)nc3ccccc32)cc1 [Lerisetron, 1-benzyl-2-piperazin-1-yl-1H-benzimidazole]
5HT3
  IC50: 7 nM

## NP-1297: 5-nonyloxytryptamine oxalate conjugated to a siRNA against mRNA for Ataxin-I (SEQ ID NO: 9/10) (chain 1 GAUCUAACGUGGGCAAGUATT; chain 2 UACUUGCCCACGUUAGAUCTT; 5-nonyloxytryptamine conjugated, attachment position not given here)
Ataxin-I mRNA
  Decrease of optical density (Ataxin-1 probe) in the Purkinje cells layer normalized against PBS: 48%±5

Reference: patent US9938525B2, “Compositions and methods for selective delivery of oligonucleotide molecules to cell types” (nLife Therapeutics, S.L., priority 2012, dated 2018)
